Experimental data published in PMC11362066, “Fecal elimination of fluralaner in different carnivore species after oral administration” (Frontiers in Veterinary Science, 2024).
≈ marks a conversion by molar mass, not a printed value. Like-named read-outs stand apart in the source and are kept apart here.

Legend:
[1] = Oral Bravecto in zoo carnivores, all treated animals (tolerance, fecal residues); format: in vivo
Protocol: (§1) Based on the species present at the Paris Zoo, the animals selected to be part of the study are described in Table 1.
(§2) Each individual received 1–3 tablets of fluralaner (Bravecto®, formulations from 112.5 mg to 1,400 mg per tablet), based on the dose determined (Table 2) and the actual BW of the animal on day 0 (D0). Tablets were administered with the food. Tablets were not divided, according to the summary of product characteristics and the dose administered was adjusted as closely as possible to the theoretical dose calculated. The recommended bracket doses (25–56 mg/kg in a 20-kg dog) were used as a guideline (adjusted to the body weight of the animals) to ensure that the actual dose administered would remain in the acceptable margin. For instance, for the Iberian Wolf: using the dose range 25–56 mg/kg gave a D-reference of [500–1,120] mg, thus c = D-ref/P-ref = [0.76–1.69], i.e., D-target = [763–1,698] mg, resulting in a reference range of [21.9–48.6] mg.kg^−1. The actual doses administered were between 28 and 30 mg.kg^−1. This was checked for all species.
(§3) Feces were sampled on the floor, in priority on concrete ground in indoor facilities when animals were isolated. Fecal sampling was performed by keepers with gloves, transferred to sterile vials, then saved at −80°C until transfer to the lab.

[2] = tested on: sarcoptic mange; parameters: method as in PMID 30895701; details: Raccoon dogs, one oral dose; cited from earlier work
[3] = parameters: method as in PMID 33733534; details: cited from earlier work
[4] = Fecal elimination of fluralaner after oral administration, European otter; format: in vivo, Lutra lutra; details: European otter n = 1
Protocol: as §1, §2, §3
(§4) For feces analysis, well-homogenized samples were weighed and dried at 40°C overnight to eliminate water. 200 mg of the dried sample were weighed, 80 μL of IS solution (0.5 μg/mL solution), 0.52 mL of water, 200 mg QuEChERS salts and 1 mL of acetonitrile were added in a 5 mL plastic centrifuge tube. The sample was then mixed well by vortexing for 2 min and then centrifuged at 12,000 rpm for 5 min.
(§5) The upper clear layer solutions were transferred to auto-sampler vials and placed in the auto-sampler at 10°C for LC–MS/MS analysis. All results are reported in μg.kg^−1 dry weight (dw).
(§6) All pharmacokinetic data were computed using a non-linear model and “PK solver” in Microsoft-excel®. This approach has been used by Kilp et al. ([21]) and considered satisfactory by comparison with a standard PK software such as WinNonLIn®.
(§7) Only Lion and Mountain lion data (3 individuals+negative control for each species) are presented in Figure 2 as mean ± SD of the fecal concentration of fluralaner vs. time post administration. When data were LOD < Data<LOQ, an average value of 4 has been used (for graphical and PK analysis purposes). When concentrations were < LOD, ½ LOD value was used for the same purposes.

[5] = tested on: Daphnia magna; parameters: method as in ref 10 = [10]; 10. CVMP ( 2017 ) CVMP assessment report for EXZOLT (EM EA/V/C/004344/0000), EMA/377159/2017, Available at: https://www.ema.europa.eu/en/documents/assessment-report/exzolt-epar-public-assessment-repor; details: cited from earlier work
[6] = Fecal elimination of fluralaner after oral administration, Mountain lion; format: in vivo, Puma concolor
Protocol: as §1, §2, §3, §4, §5, §6, §7

[7] = Fecal elimination of fluralaner after oral administration, Lion; format: in vivo, Panthera leo
Protocol: as §1, §2, §3, §4, §5, §6, §7

[8] = parameters: method as in ref 27 = [27]; 27. VSDB Veterinary substances DataBase consulted on June 1st, ( 2022 ) Available at: http://sitem.herts.ac.uk/aeru/vsdb/index.htm; details: VSDB; cited from earlier work
[9] = tested on: honey bees; parameters: method as in ref 10 = [10]; 10. CVMP ( 2017 ) CVMP assessment report for EXZOLT (EM EA/V/C/004344/0000), EMA/377159/2017, Available at: https://www.ema.europa.eu/en/documents/assessment-report/exzolt-epar-public-assessment-repor; details: cited from earlier work
[10] = parameters: method as in PMID 33407820; details: wombats, pour on, doses of 25 or 85 mg.kg^−1; cited from earlier work
[11] = cited from earlier work
[12] = Fecal elimination of fluralaner after oral administration, Iberian wolf; format: in vivo, Canis lupus; details: Iberian wolf n = 1
Protocol: as §1, §2, §3, §4, §5, §6, §7

[13] = parameters: method as in PMID 28103942; details: 221 dogs treated; cited from earlier work
[14] = Fecal elimination of fluralaner after oral administration, Jaguar; format: in vivo, Panthera onca; details: Jaguar n = 1
Protocol: as §1, §2, §3, §4, §5, §6, §7

[15] = parameters: method as in PMID 33480547; details: black bears, orally at 25 mg.kg^−1; cited from earlier work
[16] = Fecal elimination of fluralaner after oral administration, Suricate; format: in vivo, Suricatta suricatta; details: feces, Suricate n = 1
Protocol: as §1, §2, §3, §4, §5, §6, §7

[17] = tested on: dog and cat fleas; details: cited from earlier work
[18] = cited from earlier work; remark: listed apart in the source
[19] = cited from earlier work; remark: listed apart in the source
[20] = parameters: method as in PMID 36265636; details: treated dogs; cited from earlier work
[21] = Fecal elimination of fluralaner after oral administration, Fossa; format: in vivo, Cryptoprocta ferox; details: Fossa n = 1
Protocol: as §1, §2, §3, §4, §5, §6, §7

[22] = Fecal elimination of fluralaner after oral administration, South American coati; format: in vivo, Nasua nasua; details: South American coati n = 1
Protocol: as §1, §2, §3, §4, §5, §6, §7

[23] = fecal elimination, oral 36.8 mg.kg^−1
[24] = fecal elimination, Mountain lion n = 3, mean ± SD, oral 20.8–25.0 mg.kg^−1
[25] = feces, Mountain lion n = 3, mean ± SD, oral 20.8–25.0 mg.kg^−1
[26] = fecal elimination, Lion n = 3, mean ± SD, oral 16.0–24.1 mg.kg^−1
[27] = feces, Lion n = 3, mean ± SD, oral 16.0–24.1 mg.kg^−1
[28] = fecal elimination, oral 28.6 mg.kg^−1
[29] = fecal elimination, oral 34.5 mg.kg^−1
[30] = fecal elimination, oral 26.3 mg.kg^−1
[31] = fecal elimination, oral 52.1 mg.kg^−1

## Cc1cc(C2=NOC(c3cc(Cl)cc(Cl)c3)(C(F)(F)F)C2)ccc1C(=O)NCC(=O)NCC(F)(F)F (stereo not shown) [fluralaner, Fluralaner]
[1]; all animals treated, oral Bravecto tablets, allometrically scaled dose
  Adverse reaction during the course of the study: No adverse reaction was noted
[1]; feces, highest value
  Concentrations detected in fecal samples throughout the study: up to 44,000 μg/kg
[1]; our study
  Duration of elimination in feces as an active substance: up to 3 months
[2]
  Time to cure from sarcoptic mange: 7 days
[3]
  Protein-bound: > 99%
[4]; [23]
  MRT: 384 h
  t1/2: 48 h
[4]; feces, Bravecto tablet oral with food, 36.8 mg.kg^−1, rough estimate
  Cmax: 2,137 μg.kg-^1 dry weight
[4]; feces, oral 36.8 mg.kg^−1
  AUC (D0-D112): 41,301 d* μg.kg-^1 dry weight
  AUC(0-infini): 41,354 d* μg.kg-^1 dry weight
  Last detection day: 42 days
[4]; feces, oral 36.8 mg.kg^−1, rough estimate
  tmax: 170 h
[5]; Daphnia magna, assessment report for EXZOLT
  LC50: 0.047 µg/mL (≈ 0.0845 µM)
[5]; Daphnia magna
  No Observed Effect Concentration (NOEC) for reproduction: 0.047 µg/L
[5]; aquatic invertebrates (Daphnia magna)
  Toxicity classification: highly toxic
[6]; [24]
  MRT: 72 ± 24 h
  t1/2: 140 ± 24 h
[6]; feces, Mountain lion n = 3, mean ± SD, Bravecto tablets oral with food, 20.8–25.0 mg.kg^−1, rough estimate
  Cmax: 12,909 ± 4,954 μg.kg-^1 dry weight
[6]; [25]
  AUC (D0-D112): 54,158±19,755 d* μg.kg-^1 dry weight
  AUC(0-infini): 54,786±19,755 d* μg.kg-^1 dry weight
[6]; feces, Mountain lion n = 3, oral 20.8–25.0 mg.kg^−1
  Last detection day: 49 days
[6]; feces, Mountain lion n = 3, oral 20.8–25.0 mg.kg^−1, rough estimate
  tmax: 24 h
[7]; [26]
  MRT: 190 ± 24 h
  t1/2: 288 ± 24 h
[7]; feces, Lion n = 3, mean ± SD, Bravecto tablets oral with food, 16.0–24.1 mg.kg^−1, rough estimate
  Cmax: 44,880 ± 28,616 μg.kg-^1 dry weight
[7]; [27]
  AUC (D0-D112): 232,796±95,614 d* μg.kg-^1 dry weight
  AUC(0-infini): 234,203±95,339 d* μg.kg-^1 dry weight
[7]; feces, Lion n = 3, oral 16.0–24.1 mg.kg^−1
  Last detection day: 89 days
[7]; feces, Lion n = 3, oral 16.0–24.1 mg.kg^−1, rough estimate
  tmax: 24 h
[8]
  Hydrolysis: not degraded by hydrolysis
  Lipophilicity: lipophilic
[9]
  Toxicity classification: highly toxic
[10]
  Safety: safe
[11]; dogs fed prior to the administration of the drug
  Effect of food on bioavailability: doubled
[11]; dogs, oral administration
  Half-life: 264 to 312 h
[11]; dogs, topical
  Bioavailability, topical administration: 22–25%
[12]; [28]
  MRT: 140 h
  t1/2: 120 h
[12]; feces, Bravecto tablet oral with food, 28.6 mg.kg^−1, rough estimate
  Cmax: 620 μg.kg-^1 dry weight
[12]; feces, oral 28.6 mg.kg^−1
  AUC (D0-D112): 7,218 d* μg.kg-^1 dry weight
  AUC(0-infini): 7,260 d* μg.kg-^1 dry weight
  Last detection day: 31 days
[12]; feces, oral 28.6 mg.kg^−1, rough estimate
  tmax: 24 h
[13]
  Dogs displaying alopecia: 4%
  Dogs displaying vomiting: 6%
[14]; [29]
  MRT: 360 h
  t1/2: 190 h
[14]; feces, Bravecto tablets oral with food, 34.5 mg.kg^−1, rough estimate
  Cmax: 16,089 μg.kg-^1 dry weight
[14]; feces, oral 34.5 mg.kg^−1
  AUC (D0-D112): 145,337 d* μg.kg-^1 dry weight
  AUC(0-infini): 145,752 d* μg.kg-^1 dry weight
  Last detection day: 72 days
[14]; feces, oral 34.5 mg.kg^−1, rough estimate
  tmax: 170 h
[15]
  Half-life: 118 h
[16]; Bravecto tablet oral with food, 125 mg.kg^−1, rough estimate, residues in control animal in same cage
  Cmax: 15 μg.kg-^1 dry weight
[16]; oral 125 mg.kg^−1
  AUC (D0-D112): 105 d* μg.kg-^1 dry weight
  Last detection day: 14 days
[16]; oral 125 mg.kg^−1, rough estimate
  tmax: 336 h
[17]; dogs and cats
  Efficacy period: 12 week
[17]; reference not given
  Duration of insecticidal effect on dog and cat fleas: 12 weeks
[18]
  Administered dose eliminated unchanged in the feces: 90%
[18]; rats, dogs and chickens
  Administered dose eliminated unchanged in the feces: up to 90%
[18]; reference not given
  Eliminated via the feces as the unchanged compound: > 90%
[19]; CVMP assessment report
  DT50 in soil: ~1,000 days
[19]; VSDB
  DT50 in soil: 60 days
[19]; aerobic waters
  DT50 in aquatic environments: 3 to 4 days
[19]; sandy loams
  DT50 in soil: up to 989 days
[19]; sediments
  DT50 in sediments: 112 to 195 days
[20]
  Measured values in urine samples: 1 µg/L
[21]; [30]
  MRT: 24 h
  t1/2: 72 h
[21]; feces, Bravecto tablet oral with food, 26.3 mg.kg^−1, rough estimate, residues in control animal in same cage
  Cmax: 370,295 μg.kg-^1 dry weight
[21]; feces, oral 26.3 mg.kg^−1
  AUC (D0-D112): 1,373,277 d* μg.kg-^1 dry weight
  AUC(0-infini): 1,373,579 d* μg.kg-^1 dry weight
  Last detection day: 35 days
[21]; feces, oral 26.3 mg.kg^−1, rough estimate
  tmax: 24 h
[22]; [31]
  MRT: 912 h
  t1/2: 624 h
[22]; feces, Bravecto tablet oral with food, 52.1 mg.kg^−1, rough estimate
  Cmax: 453 μg.kg-^1 dry weight
[22]; feces, oral 52.1 mg.kg^−1
  AUC (D0-D112): 7,688 d* μg.kg-^1 dry weight
  AUC(0-infini): 8,998 d* μg.kg-^1 dry weight
  Last detection day: 82 days
[22]; feces, oral 52.1 mg.kg^−1, rough estimate
  tmax: 24 h
